We go through two compounds from patent US7358402B2, “Reduced coenzyme Q10 crystal with excellent stability and composition containing said reduced coenzyme Q10 crystal” (Kaneka Corporation, priority 2003, dated 2008).

The nature of the data set: Plasma concentration of reduced coenzyme Q10 after oral administration to rats. Type of data set: in vivo. The note with it: SD rats, male, oral 30 mg/kg as suspension with rapeseed oil (1:2) in 0.2% Tween 80. The protocol:
Using the reduced coenzyme Q10 obtained in Example 1 and the reduced coenzyme Q10 obtained in Comparative Example 1, the blood concentrations of reduced coenzyme Q10 were measured when they were orally administered to rats. Each samples and rapeseed oil were added to aqueous solution of 0.2% Tween 80 to prepare suspension in which reduced coenzyme Q10:rapeseed oil=1:2. The suspension was orally administered to SD rats (male, 6 rats in one group) forcibly using a stomach sonde in 30 mg (reduced coenzyme Q10)/kg (rat body weight). Thereafter, the blood was sampled with time, and the plasma concentration of reduced coenzyme Q10 was measured by HPLC.

With `COc1c(O)c(C)c(C/C=C(\C)CC/C=C(\C)CC/C=C(\C)CC/C=C(\C)CC/C=C(\C)CC/C=C(\C)CC/C=C(\C)CC/C=C(\C)CC/C=C(\C)CCC=C(C)C)c(O)c1OC` [Crystals obtained in Comparative Example 1] [reduced coenzyme Q10], the “Tmax, time to maximum plasma concentration” value (listed as Reduced coenzyme Q10 crystals obtained in Comparative Example 1, 30 mg/kg) was 8 h.

For the compound `COc1c(O)c(C)c(C/C=C(\C)CC/C=C(\C)CC/C=C(\C)CC/C=C(\C)CC/C=C(\C)CC/C=C(\C)CC/C=C(\C)CC/C=C(\C)CC/C=C(\C)CCC=C(C)C)c(O)c1OC` [Crystals obtained in Example 1, reduced coenzyme Q10], the “Tmax, time to maximum plasma concentration” value (listed as Reduced coenzyme Q10 crystals obtained in Example 1, 30 mg/kg) came to 4 h.
